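The compound was tested at five concentrations on cells cultured in 96-well plates, with a 48-hour exposure period. GI50 marks 50% less growth. TGI is the concentration that stops growth completely.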
Key:
Test in all cases: NCI anticancer screen, dose series, 48 h; in the data active means GI50 below about 0.43 µM; inactive means the rest
[1] = tested on: T-47D breast
[2] = tested on: DU-145 prostate
[3] = tested on: SN12C renal
[4] = tested on: CAKI-1 renal
[5] = tested on: NCI-H23 lung
[6] = tested on: TK-10 renal
[7] = tested on: SK-MEL-2 melanoma
[8] = tested on: HS 578T breast
[9] = tested on: RXF 393 renal
[10] = tested on: HL-60(TB) leukemia
[11] = tested on: EKVX NSCLC
[12] = tested on: OVCAR-3 ovarian
[13] = tested on: COLO 205 colon
[14] = tested on: MDA-MB-231 breast
[15] = tested on: KM12 colon
[16] = tested on: A549 NSCLC
[17] = tested on: SW-620 colon
[18] = tested on: HOP-62 NSCLC
[19] = tested on: MOLT-4 leukemia
[20] = tested on: SK-OV-3 ovarian
[21] = tested on: K-562 leukemia
[22] = tested on: CCRF-CEM leukemia
[23] = tested on: NCI-H226 lung
[24] = tested on: A498 renal
[25] = tested on: OVCAR-5 ovarian
[26] = tested on: MALME-3M melanoma
[27] = tested on: UO-31 renal
[28] = tested on: UACC-257 melanoma
[29] = tested on: SNB-75 CNS
[30] = tested on: NCI/ADR-RES ovarian
[31] = tested on: SR leukemia
[32] = tested on: U251 CNS
[33] = tested on: UACC-62 melanoma
[34] = tested on: OVCAR-8 ovarian
[35] = tested on: IGROV1 ovarian
[36] = tested on: NCI-H460 lung
[37] = tested on: SK-MEL-5 melanoma
[38] = tested on: M14 melanoma
[39] = tested on: MDA-MB-435
[40] = tested on: LOX IMVI melanoma
[41] = tested on: 786-0 renal
[42] = tested on: MCF7 breast
[43] = tested on: BT-549 breast
[44] = tested on: SNB-19 CNS
[45] = tested on: HT29 colon
[46] = tested on: SF-295 CNS
[47] = tested on: SF-539 CNS
[48] = tested on: OVCAR-4 ovarian
[49] = tested on: ACHN renal
[50] = tested on: SF-268 CNS
[51] = tested on: NCI-H522 lung
[52] = tested on: HCC-2998 colon
[53] = tested on: HCT-116 colon
[54] = tested on: PC-3 prostate
[55] = tested on: SK-MEL-28 melanoma
[56] = tested on: HCT-15 colon
[57] = tested on: RPMI-8226 leukemia
[58] = tested on: HOP-92 NSCLC

CCN(CC)CCOc1ccc2c(c1)C(=O)c1cc(OCCN(CC)CC)ccc1-2
27.1 µM: TGI [38]
24.4 µM: TGI [7]
6.59 µM: TGI [31]
32.9 µM: TGI [16]
60.2 µM: TGI [20]
69.7 µM: TGI [25]
21.8 µM: TGI [41]
23.9 µM: TGI [19]
81.5 µM: TGI [2]
27.5 µM: TGI [5] | TGI [51]
56.2 µM: TGI [1]
49.1 µM: TGI [46]
24 µM: TGI [9]
24.6 µM: TGI [37]
22.6 µM: TGI [52]
20.6 µM: TGI [17]
11.2 µM: TGI [21]
34.2 µM: TGI [23]
> 100 µM: TGI [4]
63.6 µM: TGI [11]
54 µM: TGI [34]
inactive: GI50 [1] 23.8 µM | GI50 [2] 14.8 µM | GI50 [3] 12.6 µM | GI50 [4] 30.2 µM | GI50 [5] 11.9 µM | GI50 [6] 19.2 µM | GI50 [7] 11.3 µM | GI50 [8] 13.7 µM | GI50 [9] 10.2 µM | GI50 [10] 3.04 µM | GI50 [11] 20 µM | GI50 [12] 18.3 µM | GI50 [13] 2.56 µM | GI50 [14] 10.4 µM | GI50 [15] 5.36 µM | GI50 [16] 6.4 µM | GI50 [17] 4.04 µM | GI50 [18] 8.12 µM | GI50 [19] 5.27 µM | GI50 [20] 16.4 µM | GI50 [21] 3.1 µM | GI50 [22] 4.81 µM | GI50 [23] 11.7 µM | GI50 [24] 16.5 µM | GI50 [25] 35.6 µM | GI50 [26] 15.6 µM | GI50 [27] 3.52 µM | GI50 [28] 11.5 µM | GI50 [29] 12.2 µM | GI50 [30] 9.63 µM | GI50 [31] 2.69 µM | GI50 [32] 8.73 µM | GI50 [33] 12.4 µM | GI50 [34] 8 µM | GI50 [35] 6.65 µM | GI50 [36] 4.03 µM | GI50 [37] 12.2 µM | GI50 [38] 14 µM | GI50 [39] 12.9 µM | GI50 [40] 4.31 µM | GI50 [41] 7.17 µM | GI50 [42] 3.44 µM | GI50 [43] 20.4 µM | GI50 [44] 26.3 µM | GI50 [45] 2.58 µM | GI50 [46] 17.2 µM | GI50 [47] 2.54 µM | GI50 [48] 5.69 µM | GI50 [49] 5.92 µM | GI50 [50] 8.5 µM | GI50 [51] 12.4 µM | GI50 [52] 10 µM | GI50 [53] 3.45 µM | GI50 [54] 5.64 µM | GI50 [55] 15.1 µM | GI50 [56] 12.1 µM
27.7 µM: TGI [39]
33.1 µM: TGI [50]
31.3 µM: TGI [32]
15.2 µM: TGI [36] | TGI [53]
45.1 µM: TGI [3]
61.7 µM: TGI [44]
16.7 µM: TGI [40]
38 µM: TGI [8]
28 µM: TGI [18]
9.38 µM: TGI [13]
90.9 µM: TGI [6]
43.2 µM: TGI [35]
26.2 µM: TGI [54]
44.6 µM: TGI [56]
29.4 µM: TGI [55]
17.5 µM: TGI [10]
21 µM: TGI [22]
52.6 µM: TGI [12]
14.8 µM: TGI [42]
26.7 µM: TGI [33]
37.5 µM: TGI [24]
24.9 µM: TGI [15] | TGI [28] | TGI [29]
33.6 µM: TGI [26]
46.5 µM: TGI [43] | TGI [49]
38.7 µM: TGI [48]
33.2 µM: TGI [30]
5.72 µM: TGI [47]
33.8 µM: TGI [14]
26.3 µM: TGI [27]
10.4 µM: TGI [45]

Cc1ccc(C2C3=C(N=c4s/c(=C/c5ccc(Br)cc5)c(=O)n42)c2ccc4ccccc4c2OCC3)cc1 (configuration not stated)
inactive: GI50 [1] > 100 µM | GI50 [2] > 100 µM | GI50 [5] > 100 µM | GI50 [6] > 100 µM | GI50 [7] > 100 µM | GI50 [8] > 100 µM | GI50 [9] > 100 µM | GI50 [10] > 100 µM | GI50 [11] > 100 µM | GI50 [12] > 100 µM | GI50 [13] > 100 µM | GI50 [14] > 100 µM | GI50 [15] > 100 µM | GI50 [16] > 100 µM | GI50 [17] > 100 µM | GI50 [18] > 100 µM | GI50 [19] > 100 µM | GI50 [20] > 100 µM | GI50 [21] > 100 µM | GI50 [22] > 100 µM | GI50 [24] > 100 µM | GI50 [57] > 100 µM | GI50 [25] > 100 µM | GI50 [26] 54.9 µM | GI50 [27] > 100 µM | GI50 [28] 35.7 µM | GI50 [29] > 100 µM | GI50 [30] > 100 µM | GI50 [31] > 100 µM | GI50 [32] > 100 µM | GI50 [33] 67.9 µM | GI50 [34] > 100 µM | GI50 [35] > 100 µM | GI50 [36] > 100 µM | GI50 [37] > 100 µM | GI50 [38] > 100 µM | GI50 [39] > 100 µM | GI50 [40] > 100 µM | GI50 [41] > 100 µM | GI50 [42] > 100 µM | GI50 [43] > 100 µM | GI50 [44] > 100 µM | GI50 [45] 67.8 µM | GI50 [46] > 100 µM | GI50 [47] > 100 µM | GI50 [58] > 100 µM | GI50 [48] > 100 µM | GI50 [49] > 100 µM | GI50 [50] > 100 µM | GI50 [51] > 100 µM | GI50 [52] > 100 µM | GI50 [53] > 100 µM | GI50 [54] > 100 µM | GI50 [55] > 100 µM | GI50 [56] 2.89 µM
> 100 µM: TGI [1] | TGI [2] | TGI [5] | TGI [6] | TGI [7] | TGI [8] | TGI [9] | TGI [10] | TGI [11] | TGI [12] | TGI [13] | TGI [14] | TGI [15] | TGI [16] | TGI [17] | TGI [18] | TGI [19] | TGI [20] | TGI [21] | TGI [22] | TGI [24] | TGI [57] | TGI [25] | TGI [26] | TGI [27] | TGI [28] | TGI [29] | TGI [30] | TGI [31] | TGI [32] | TGI [33] | TGI [34] | TGI [35] | TGI [36] | TGI [37] | TGI [38] | TGI [39] | TGI [40] | TGI [41] | TGI [42] | TGI [43] | TGI [44] | TGI [45] | TGI [46] | TGI [47] | TGI [58] | TGI [48] | TGI [49] | TGI [50] | TGI [51] | TGI [52] | TGI [53] | TGI [54] | TGI [55] | TGI [56]

Source: PubChem BioAssay (NCI)
